From patent US20120029187A1, “HALOALKYLSULFONANILIDE DERIVATIVE” (Nissan Chemical Industries, Ltd., priority 2009, published 2012)

What was measured:
Type in all cases: in vivo
barnyardgrass [1] = assay: Test Example 1: herbicidal effects in preemergence treatment under submerged conditions; conditions: dose 2.52 g/a
Outline: (§1)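 Flooded-paddy preemergence assay; EC diluted with water, surface-applied at weed seeding; doses g/a; rice transplanted at 2.5 leaves; 0–5 mortality score after 3 weeks.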

bulrush [2] = assay: as above; conditions: dose 2.52 g/a
Outline: as §1

ducksalad [3] = assay: as above; conditions: dose 2.52 g/a
Outline: as §1

transplanted rice = assay: Test Example 1: preemergence treatment under submerged conditions, effect on crop; conditions: dose 2.52 g/a
Outline: as §1

barnyardgrass [4] = assay: Test Example 2: herbicidal effects during the vegetation period under submerged conditions; conditions: treatment during the vegetation period under submerged conditions; dose 2.52 g/a
Outline: (§2)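 Barnyardgrass, bulrush and ducksalad were co-sown in alluvial soil flooded to 4 cm and grown in a greenhouse at 25 to 30° C. At the 1- or 2-leaf stage, water-diluted emulsifiable concentrates went onto the water surface at set doses (g/a). Herbicidal effect was scored three weeks later on a graded scale.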

bulrush [5] = assay: as above; conditions: treatment during the vegetation period under submerged conditions; dose 2.52 g/a
Outline: as §2

ducksalad [6] = assay: as above; conditions: treatment during the vegetation period under submerged conditions; dose 2.52 g/a
Outline: as §2

Italian ryegrass [7] = assay: Test Example 3: herbicidal effects in soil treatment
Outline: (§3)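 Seeds were sown in sterilized diluvial soil and covered with about 1.5 cm of soil. Compounds, formulated as emulsifiable concentrates and diluted with water, were sprayed evenly over the soil surface at set doses in g/a. Herbicidal effect was scored on a rating scale three weeks later.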

barnyardgrass [8] = assay: as above
Outline: as §3

beadstraw [9] = assay: as above
Outline: as §3

common chickweed [10] = assay: as above
Outline: as §3

common lambsquater [11] = assay: as above
Outline: as §3

common ragweed [12] = assay: as above
Outline: as §3

giant foxtail [13] = assay: as above
Outline: as §3

large crabgrass [14] = assay: as above
Outline: as §3

posumbu knotweed [15] = assay: as above
Outline: as §3

redroot pigweed [16] = assay: as above
Outline: as §3

velvetleaf [17] = assay: as above
Outline: as §3

water foxtail [18] = assay: as above
Outline: as §3

wild oat [19] = assay: as above
Outline: as §3

Italian ryegrass [20] = assay: Test Example 4: herbicidal effect in foliage treatment
Outline: (§4)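 Seeds were spot-sown in boxes of sterilized diluvial soil and raised in a greenhouse (25 to 30° C) for 14 days before a single foliar application. Compounds were applied as emulsifiable concentrates diluted with water, at predetermined doses in g/a. Injury was graded three weeks post-spray.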

barnyardgrass [21] = assay: as above
Outline: as §4

beadstraw [22] = assay: as above
Outline: as §4

common chickweed [23] = assay: as above
Outline: as §4

common lambsquater [24] = assay: as above
Outline: as §4

common ragweed [25] = assay: as above
Outline: as §4

giant foxtail [26] = assay: as above
Outline: as §4

large crabgrass [27] = assay: as above
Outline: as §4

posumbu knotweed [28] = assay: as above
Outline: as §4

redroot pigweed [29] = assay: as above
Outline: as §4

velvetleaf [30] = assay: as above
Outline: as §4

water foxtail [31] = assay: as above
Outline: as §4

wild oat [32] = assay: as above
Outline: as §4

[33] = dose 3.2 g/a, three weeks after the application
[34] = dose 6.3 g/a, three weeks after application

CCOC(=O)N(c1ccccc1CN1OCCCC1=O)S(=O)(=O)C(F)(F)F [III-13]
A: barnyardgrass, herbicidal effect (evaluation scale 0-5) (barnyardgrass [1]): 5 (mortality of 90% or above (nearly complete death))
B: bulrush, herbicidal effect (evaluation scale 0-5) (bulrush [2]): 5 (mortality of 90% or above (nearly complete death))
C: ducksalad, herbicidal effect (evaluation scale 0-5) (ducksalad [3]): 5 (mortality of 90% or above (nearly complete death))
a: transplanted rice, effect on crop (evaluation scale 0-5) (transplanted rice): 1 (mortality of at least 5% and less than 20%)
A: barnyardgrass, herbicidal effect (evaluation scale 0-5) (barnyardgrass [4]): 5 (mortality of 90% or above (nearly complete death))
B: bulrush, herbicidal effect (evaluation scale 0-5) (bulrush [5]): 5 (mortality of 90% or above (nearly complete death))
C: ducksalad, herbicidal effect (evaluation scale 0-5) (ducksalad [6]): 5 (mortality of 90% or above (nearly complete death))
herbicidal effect, H: Italian ryegrass (Italian ryegrass [7]; dose 3.2 g/a): 5 (mortality of 90% or above (nearly complete death))
herbicidal effect, A: barnyardgrass (barnyardgrass [8]; dose 3.2 g/a): 5 (mortality of 90% or above (nearly complete death))
herbicidal effect, O: beadstraw (beadstraw [9]; dose 3.2 g/a): 0 (mortality of less than 5% (almost ineffective))
herbicidal effect, N: common chickweed (common chickweed [10]; dose 3.2 g/a): 4 (mortality of at least 70% and less than 90%)
herbicidal effect, L: common lambsquater (common lambsquater [11]; dose 3.2 g/a): 0 (mortality of less than 5% (almost ineffective))
herbicidal effect, J: common ragweed (common ragweed [12]; dose 3.2 g/a): 5 (mortality of 90% or above (nearly complete death))
herbicidal effect, E: giant foxtail (giant foxtail [13]; dose 3.2 g/a): 5 (mortality of 90% or above (nearly complete death))
herbicidal effect, D: large crabgrass (large crabgrass [14]; dose 3.2 g/a): 5 (mortality of 90% or above (nearly complete death))
herbicidal effect, M: posumbu knotweed (posumbu knotweed [15]; dose 3.2 g/a): 0 (mortality of less than 5% (almost ineffective))
herbicidal effect, K: redroot pigweed (redroot pigweed [16]; dose 3.2 g/a): 3 (mortality of at least 40% and less than 70%)
herbicidal effect, I: velvetleaf (velvetleaf [17]; dose 3.2 g/a): 5 (mortality of 90% or above (nearly complete death))
herbicidal effect, G: water foxtail (water foxtail [18]; dose 3.2 g/a): 5 (mortality of 90% or above (nearly complete death))
herbicidal effect, F: wild oat (wild oat [19]; dose 3.2 g/a): 3 (mortality of at least 40% and less than 70%)
H: Italian ryegrass, herbicidal effect (Italian ryegrass [20]; [33]): 4 (mortality of at least 70% and less than 90%)
A: barnyardgrass, herbicidal effect (barnyardgrass [21]; [33]): 5 (mortality of 90% or above (nearly complete death))
O: beadstraw, herbicidal effect (beadstraw [22]; [33]): 4 (mortality of at least 70% and less than 90%)
N: common chickweed, herbicidal effect (common chickweed [23]; [33]): 4 (mortality of at least 70% and less than 90%)
L: common lambsquater, herbicidal effect (common lambsquater [24]; [33]): 0 (mortality of less than 5% (almost ineffective))
J: common ragweed, herbicidal effect (common ragweed [25]; [33]): 4 (mortality of at least 70% and less than 90%)
E: giant foxtail, herbicidal effect (giant foxtail [26]; [33]): 5 (mortality of 90% or above (nearly complete death))
D: large crabgrass, herbicidal effect (large crabgrass [27]; [33]): 5 (mortality of 90% or above (nearly complete death))
M: posumbu knotweed, herbicidal effect (posumbu knotweed [28]; [33]): 0 (mortality of less than 5% (almost ineffective))
K: redroot pigweed, herbicidal effect (redroot pigweed [29]; [33]): 0 (mortality of less than 5% (almost ineffective))
I: velvetleaf, herbicidal effect (velvetleaf [30]; [33]): 5 (mortality of 90% or above (nearly complete death))
G: water foxtail, herbicidal effect (water foxtail [31]; [33]): 5 (mortality of 90% or above (nearly complete death))
F: wild oat, herbicidal effect (wild oat [32]; [33]): 0 (mortality of less than 5% (almost ineffective))

CCOC(=O)N(c1ccccc1CN1CCSCC1=O)S(=O)(=O)C(F)(F)F [Compound I-18, 4-[2-(N-ethoxycarbonyl-N-trifluoromethanesulfonyl)aminobenzyl]-1,4-thiazinan-3-one]
A: barnyardgrass, herbicidal effect (evaluation scale 0-5) (barnyardgrass [1]): 5 (mortality of 90% or above (nearly complete death))
B: bulrush, herbicidal effect (evaluation scale 0-5) (bulrush [2]): 5 (mortality of 90% or above (nearly complete death))
C: ducksalad, herbicidal effect (evaluation scale 0-5) (ducksalad [3]): 5 (mortality of 90% or above (nearly complete death))
a: transplanted rice, effect on crop (evaluation scale 0-5) (transplanted rice): 0 (mortality of less than 5% (almost ineffective))
B: bulrush, herbicidal effect (evaluation scale 0-5) (bulrush [5]): 5 (mortality of 90% or above (nearly complete death))
C: ducksalad, herbicidal effect (evaluation scale 0-5) (ducksalad [6]): 4 (mortality of at least 70% and less than 90%)
H: Italian ryegrass, herbicidal effect (evaluation scale 0-5) (Italian ryegrass [7]; dose 6.3 g/a): 4 (mortality of at least 70% and less than 90%)
A: barnyardgrass, herbicidal effect (evaluation scale 0-5) (barnyardgrass [8]; dose 6.3 g/a): 5 (mortality of 90% or above (nearly complete death))
O: beadstraw, herbicidal effect (evaluation scale 0-5) (beadstraw [9]; dose 6.3 g/a): 3 (mortality of at least 40% and less than 70%)
N: common chickweed, herbicidal effect (evaluation scale 0-5) (common chickweed [10]; dose 6.3 g/a): 4 (mortality of at least 70% and less than 90%)
L: common lambsquater, herbicidal effect (evaluation scale 0-5) (common lambsquater [11]; dose 6.3 g/a): 5 (mortality of 90% or above (nearly complete death))
J: common ragweed, herbicidal effect (evaluation scale 0-5) (common ragweed [12]; dose 6.3 g/a): 4 (mortality of at least 70% and less than 90%)
E: giant foxtail, herbicidal effect (evaluation scale 0-5) (giant foxtail [13]; dose 6.3 g/a): 5 (mortality of 90% or above (nearly complete death))
D: large crabgrass, herbicidal effect (evaluation scale 0-5) (large crabgrass [14]; dose 6.3 g/a): 4 (mortality of at least 70% and less than 90%)
M: posumbu knotweed, herbicidal effect (evaluation scale 0-5) (posumbu knotweed [15]; dose 6.3 g/a): 3 (mortality of at least 40% and less than 70%)
K: redroot pigweed, herbicidal effect (evaluation scale 0-5) (redroot pigweed [16]; dose 6.3 g/a): 4 (mortality of at least 70% and less than 90%)
I: velvetleaf, herbicidal effect (evaluation scale 0-5) (velvetleaf [17]; dose 6.3 g/a): 1 (mortality of at least 5% and less than 20%)
G: water foxtail, herbicidal effect (evaluation scale 0-5) (water foxtail [18]; dose 6.3 g/a): 5 (mortality of 90% or above (nearly complete death))
F: wild oat, herbicidal effect (evaluation scale 0-5) (wild oat [19]; dose 6.3 g/a): 0 (mortality of less than 5% (almost ineffective))
H: Italian ryegrass, herbicidal effect (Italian ryegrass [20]; [34]): 4 (mortality of at least 70% and less than 90%)
A: barnyardgrass, herbicidal effect (barnyardgrass [21]; [34]): 5 (mortality of 90% or above (nearly complete death))
O: beadstraw, herbicidal effect (beadstraw [22]; [34]): 4 (mortality of at least 70% and less than 90%)
N: common chickweed, herbicidal effect (common chickweed [23]; [34]): 4 (mortality of at least 70% and less than 90%)
L: common lambsquater, herbicidal effect (common lambsquater [24]; [34]): 4 (mortality of at least 70% and less than 90%)
J: common ragweed, herbicidal effect (common ragweed [25]; [34]): 3 (mortality of at least 40% and less than 70%)
E: giant foxtail, herbicidal effect (giant foxtail [26]; [34]): 4 (mortality of at least 70% and less than 90%)
D: large crabgrass, herbicidal effect (large crabgrass [27]; [34]): 4 (mortality of at least 70% and less than 90%)
M: posumbu knotweed, herbicidal effect (posumbu knotweed [28]; [34]): 3 (mortality of at least 40% and less than 70%)
K: redroot pigweed, herbicidal effect (redroot pigweed [29]; [34]): 4 (mortality of at least 70% and less than 90%)
I: velvetleaf, herbicidal effect (velvetleaf [30]; [34]): 4 (mortality of at least 70% and less than 90%)
G: water foxtail, herbicidal effect (water foxtail [31]; [34]): 5 (mortality of 90% or above (nearly complete death))
F: wild oat, herbicidal effect (wild oat [32]; [34]): 3 (mortality of at least 40% and less than 70%)
